Test system: Magnaporthe grisea (Pyricularia oryzae—PYRIOR)
Assay: microbe, parasite or virus in culture
Type: cell-based
Settings: Pyricularia oryzae, read-out: PYRIOR in vitro Growth Inhibition

Row | Structure (SMILES) | inhibition at 25 ppm [%]
1 | COCCC(=O)Oc1cccnc1C(=O)N[C@H]1COC(=O)[C@H](Cc2ccccc2)[C@@H](OC(=O)C(C)C)[C@H](C)OC1=O [Compound 569] | > 80
2 | COc1ccc(Oc2ccccc2NC(=O)c2nccc(OC)c2O)cc1 [Compound 429] | < 80
3 | COc1ccnc(C(=O)NC/C=C(\C)CCC=C(C)C)c1O [Compound 242] | > 80
4 | COc1ccnc(C(=O)Nc2cccc(Oc3ccccc3Cl)c2)c1O [Compound 439] | < 80

Test system: Rhizoctonia solani (RHIZSO)
Assay: microbe, parasite or virus in culture
Type: cell-based
Settings: Rhizoctonia solani, read-out: RHIZSO in vitro Growth Inhibition

Row | Structure (SMILES) | inhibition at 25 ppm [%]
5 | COCCC(=O)Oc1cccnc1C(=O)N[C@H]1COC(=O)[C@H](Cc2ccccc2)[C@@H](OC(=O)C(C)C)[C@H](C)OC1=O [Compound 569] | < 80
6 | COc1ccc(Oc2ccccc2NC(=O)c2nccc(OC)c2O)cc1 [Compound 429] | < 80
7 | COc1ccnc(C(=O)NC/C=C(\C)CCC=C(C)C)c1O [Compound 242] | > 80
8 | COc1ccnc(C(=O)Nc2cccc(Oc3ccccc3Cl)c2)c1O [Compound 439] | < 80

Test system: Mycosphaerella graminicola (Septoria tritici—SEPTTR)
Assay: In vitro fungal growth inhibition, Mycosphaerella graminicola (SEPTTR)
Type: cell-based
Settings: Zymoseptoria tritici; 25 ppm in growth medium; read-out: SEPTTR in vitro Growth Inhibition

Row | Structure (SMILES) | inhibition at 25 ppm [%]
9 | COc1ccc(Oc2ccccc2NC(=O)c2nccc(OC)c2O)cc1 [Compound 429] | > 80
10 | COc1ccnc(C(=O)NC/C=C(\C)CCC=C(C)C)c1O [Compound 242] | > 80
11 | COc1ccnc(C(=O)Nc2cccc(Oc3ccccc3Cl)c2)c1O [Compound 439] | < 80

Same assay, conditions: Zymoseptoria tritici; 25 ppm in the growth medium; read-out: SEPTTR in vitro Growth Inhibition

Row | Structure (SMILES) | inhibition at 25 ppm [%]
12 | COCCC(=O)Oc1cccnc1C(=O)N[C@H]1COC(=O)[C@H](Cc2ccccc2)[C@@H](OC(=O)C(C)C)[C@H](C)OC1=O [Compound 569] | > 80

Test system: Stagonospora nodorum (Leptosphaeria nodorum—LEPTNO)
Assay: In vitro fungal growth inhibition, Stagonospora nodorum (LEPTNO)
Type: cell-based
Settings: Leptosphaeria; 25 ppm in growth medium; read-out: LEPTNO in vitro Growth Inhibition

Row | Structure (SMILES) | inhibition at 25 ppm [%]
13 | COc1ccc(Oc2ccccc2NC(=O)c2nccc(OC)c2O)cc1 [Compound 429] | < 80
14 | COc1ccnc(C(=O)NC/C=C(\C)CCC=C(C)C)c1O [Compound 242] | > 80
15 | COc1ccnc(C(=O)Nc2cccc(Oc3ccccc3Cl)c2)c1O [Compound 439] | < 80

Same assay, conditions: Leptosphaeria; 25 ppm in the growth medium; read-out: LEPTNO in vitro Growth Inhibition

Row | Structure (SMILES) | inhibition at 25 ppm [%]
16 | COCCC(=O)Oc1cccnc1C(=O)N[C@H]1COC(=O)[C@H](Cc2ccccc2)[C@@H](OC(=O)C(C)C)[C@H](C)OC1=O [Compound 569] | > 80

Test system: Ustilago maydis (USTIMA)
Assay: microbe, parasite or virus in culture
Type: cell-based
Settings: Mycosarcoma maydis, read-out: USTIMA in vitro Growth Inhibition

Row | Structure (SMILES) | inhibition at 25 ppm [%]
17 | COCCC(=O)Oc1cccnc1C(=O)N[C@H]1COC(=O)[C@H](Cc2ccccc2)[C@@H](OC(=O)C(C)C)[C@H](C)OC1=O [Compound 569] | < 80
18 | COc1ccc(Oc2ccccc2NC(=O)c2nccc(OC)c2O)cc1 [Compound 429] | < 80
19 | COc1ccnc(C(=O)NC/C=C(\C)CCC=C(C)C)c1O [Compound 242] | > 80
20 | COc1ccnc(C(=O)Nc2cccc(Oc3ccccc3Cl)c2)c1O [Compound 439] | < 80

Test system: Phytophthora infestans (PHYTIN)
Assay: microbe, parasite or virus in culture
Type: cell-based
Settings: Phytophthora infestans, read-out: PHYTIN in vitro Growth Inhibition

Row | Structure (SMILES) | inhibition at 25 ppm [%]
21 | COCCC(=O)Oc1cccnc1C(=O)N[C@H]1COC(=O)[C@H](Cc2ccccc2)[C@@H](OC(=O)C(C)C)[C@H](C)OC1=O [Compound 569] | < 80
22 | COc1ccc(Oc2ccccc2NC(=O)c2nccc(OC)c2O)cc1 [Compound 429] | < 80
23 | COc1ccnc(C(=O)NC/C=C(\C)CCC=C(C)C)c1O [Compound 242] | > 80
24 | COc1ccnc(C(=O)Nc2cccc(Oc3ccccc3Cl)c2)c1O [Compound 439] | < 80

Test system: Phytophthora infestans—PHYTIN
Assay: whole plant or invertebrate
Type: in vivo
Settings: Phytophthora, in Solanum lycopersicum, 24 h, read-out: PHYTIN in vivo 1 Day Protectant

Row | Structure (SMILES) | pest or weed control at 100 ppm [%]
25 | COCCC(=O)Oc1cccnc1C(=O)N[C@H]1COC(=O)[C@H](Cc2ccccc2)[C@@H](OC(=O)C(C)C)[C@H](C)OC1=O [Compound 569] | 25 to 74
26 | COc1ccc(Oc2ccccc2NC(=O)c2nccc(OC)c2O)cc1 [Compound 429] | < 25
27 | COc1ccnc(C(=O)NC/C=C(\C)CCC=C(C)C)c1O [Compound 242] | < 25
28 | COc1ccnc(C(=O)Nc2cccc(Oc3ccccc3Cl)c2)c1O [Compound 439] | < 25

Test system: Puccinia recondita—PUCCRT
Assay: Brown Rust of Wheat, in vivo whole plant, 24 Hour Protectant
Settings: Puccinia; 100 ppm spray, 24 hour protectant, wheat; control of fungal infection vs untreated plants; read-out: PUCCRT in vivo 1 Day Protectant

Row | Structure (SMILES) | pest or weed control at 100 ppm [%]
29 | COc1ccnc(C(=O)NC/C=C(\C)CCC=C(C)C)c1O [Compound 242] | < 25

Same assay, conditions: Puccinia; 100 ppm spray, wheat, 24 hour protectant; control of fungal infection vs untreated plants; read-out: PUCCRT in vivo 1 Day Protectant

Row | Structure (SMILES) | pest or weed control at 100 ppm [%]
30 | COc1ccc(Oc2ccccc2NC(=O)c2nccc(OC)c2O)cc1 [Compound 429] | < 25
31 | COc1ccnc(C(=O)Nc2cccc(Oc3ccccc3Cl)c2)c1O [Compound 439] | 25 to 74

Same assay, conditions: wheat plants sprayed at 100 ppm, inoculated after 24 hours; control of fungal infection vs untreated plants

Row | Structure (SMILES) | PUCCRT in vivo 1 Day Protectant
32 | COCCC(=O)Oc1cccnc1C(=O)N[C@H]1COC(=O)[C@H](Cc2ccccc2)[C@@H](OC(=O)C(C)C)[C@H](C)OC1=O [Compound 569] | + +

Test system: Erysiphe graminis—ERYSGT
Assay: Powdery Mildew of Wheat, in vivo whole plant, 24 Hour Protectant
Settings: Erysiphe; 100 ppm spray, 24 hour protectant, wheat; control of fungal infection vs untreated plants; read-out: ERYSGT in vivo 1 Day Protectant

Row | Structure (SMILES) | pest or weed control at 100 ppm [%]
33 | COc1ccnc(C(=O)NC/C=C(\C)CCC=C(C)C)c1O [Compound 242] | < 25

Same assay, conditions: Erysiphe; 100 ppm spray, wheat, 24 hour protectant; control of fungal infection vs untreated plants; read-out: ERYSGT in vivo 1 Day Protectant

Row | Structure (SMILES) | pest or weed control at 100 ppm [%]
34 | COc1ccc(Oc2ccccc2NC(=O)c2nccc(OC)c2O)cc1 [Compound 429] | < 25
35 | COc1ccnc(C(=O)Nc2cccc(Oc3ccccc3Cl)c2)c1O [Compound 439] | < 25

Same assay, conditions: Erysiphe; wheat plants sprayed at 100 ppm, inoculated after 24 hours; control of fungal infection vs untreated plants; read-out: ERYSGT in vivo 1 Day Protectant

Row | Structure (SMILES) | pest or weed control at 100 ppm [%]
36 | COCCC(=O)Oc1cccnc1C(=O)N[C@H]1COC(=O)[C@H](Cc2ccccc2)[C@@H](OC(=O)C(C)C)[C@H](C)OC1=O [Compound 569] | < 25

Test system: Septoria tritici—SEPTTR
Assay: Leaf Blotch of Wheat, in vivo whole plant, 24 Hour Protectant
Settings: Zymoseptoria tritici, 24 h, 100 ppm spray, 24 hour protectant, wheat; control of fungal infection vs untreated plants; read-out: SEPTTR in vivo 1 Day Protectant

Row | Structure (SMILES) | pest or weed control at 100 ppm [%]
37 | COc1ccnc(C(=O)NC/C=C(\C)CCC=C(C)C)c1O [Compound 242] | 25 to 74

Same assay, conditions: Zymoseptoria tritici, 24 h, 100 ppm spray, wheat, 24 hour protectant; control of fungal infection vs untreated plants; read-out: SEPTTR in vivo 1 Day Protectant

Row | Structure (SMILES) | pest or weed control at 100 ppm [%]
38 | COc1ccc(Oc2ccccc2NC(=O)c2nccc(OC)c2O)cc1 [Compound 429] | < 25
39 | COc1ccnc(C(=O)Nc2cccc(Oc3ccccc3Cl)c2)c1O [Compound 439] | < 25

Same assay, conditions: wheat plants sprayed at 100 ppm, inoculated after 24 hours; control of fungal infection vs untreated plants

Row | Structure (SMILES) | SEPTTR in vivo 1 Day Protectant
40 | COCCC(=O)Oc1cccnc1C(=O)N[C@H]1COC(=O)[C@H](Cc2ccccc2)[C@@H](OC(=O)C(C)C)[C@H](C)OC1=O [Compound 569] | + +

Test system: Leptosphaeria nodorum—LEPTNO
Assay: Glume Blotch of Wheat, in vivo whole plant, 24 Hour Protectant
Settings: Leptosphaeria; 100 ppm spray, 24 hour protectant, wheat; control of fungal infection vs untreated plants; read-out: LEPTNO in vivo 1 Day Protectant

Row | Structure (SMILES) | pest or weed control at 100 ppm [%]
41 | COc1ccnc(C(=O)NC/C=C(\C)CCC=C(C)C)c1O [Compound 242] | < 25

Same assay, conditions: Leptosphaeria; 100 ppm spray, wheat, 24 hour protectant; control of fungal infection vs untreated plants; read-out: LEPTNO in vivo 1 Day Protectant

Row | Structure (SMILES) | pest or weed control at 100 ppm [%]
42 | COc1ccc(Oc2ccccc2NC(=O)c2nccc(OC)c2O)cc1 [Compound 429] | < 25
43 | COc1ccnc(C(=O)Nc2cccc(Oc3ccccc3Cl)c2)c1O [Compound 439] | 25 to 74

Same assay, conditions: wheat plants sprayed at 100 ppm, inoculated after 24 hours; control of fungal infection vs untreated plants

Row | Structure (SMILES) | LEPTNO in vivo 1 Day Protectant
44 | COCCC(=O)Oc1cccnc1C(=O)N[C@H]1COC(=O)[C@H](Cc2ccccc2)[C@@H](OC(=O)C(C)C)[C@H](C)OC1=O [Compound 569] | + +

From patent US6706740B2, “Fungicidal heterocyclic aromatic amides and their compositions, methods of use and preparation” (Dow AgroSciences LLC, priority 1999, dated 2004)
